According to article PMC7354218 (ACS infectious diseases, 2020):
Several values for one entry are separate records, joined by “and”; a condition that tells them apart may be missing. Equal values may be shown once. Where a name gives a salt, the structure may show the parent alone. Read-outs that look alike come from different tables or passages of the source.

Tests used:
[1] = biological target: NpsA; format: biochemical, Klebsiella oxytoca; details: read-out: appKi
[2] = biological target: NpsA; format: binding, Klebsiella oxytoca; details: pH 6.8
[3] = system: K. oxytoca; format: cell-based, Klebsiella oxytoca
[4] = system: K. oxytoca strain MIT 10-5243; format: cell-based, Klebsiella oxytoca; details: read-out: IC50 for inhibition of tilivalline production
[5] = system: NpsA; format: biochemical, Klebsiella oxytoca
[6] = system: NpsB; format: biochemical, Klebsiella oxytoca; details: pH 8
[7] = biological target: T1, NpsA (wt-NpsA) (Klebsiella oxytoca, UniProt A0A291NW45); assay: biochemical; details: n = 3
T1 sequence (A0A291NW45 1-506): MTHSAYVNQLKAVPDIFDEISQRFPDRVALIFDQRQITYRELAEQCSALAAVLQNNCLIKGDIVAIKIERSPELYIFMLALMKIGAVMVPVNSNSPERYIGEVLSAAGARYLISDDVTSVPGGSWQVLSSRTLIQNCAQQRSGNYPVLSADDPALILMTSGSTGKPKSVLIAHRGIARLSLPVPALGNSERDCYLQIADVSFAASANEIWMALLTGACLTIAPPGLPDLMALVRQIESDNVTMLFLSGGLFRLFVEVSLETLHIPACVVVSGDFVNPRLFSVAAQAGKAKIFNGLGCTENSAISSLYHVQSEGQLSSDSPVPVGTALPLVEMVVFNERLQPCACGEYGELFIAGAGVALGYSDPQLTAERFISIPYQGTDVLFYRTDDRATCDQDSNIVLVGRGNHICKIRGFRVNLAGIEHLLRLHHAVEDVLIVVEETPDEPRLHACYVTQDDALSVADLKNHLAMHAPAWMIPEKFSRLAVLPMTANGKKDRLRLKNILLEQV
T1 sequence (A0A291NW67 1-76 partner): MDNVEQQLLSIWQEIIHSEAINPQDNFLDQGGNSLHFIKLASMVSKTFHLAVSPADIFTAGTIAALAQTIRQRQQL

[8] = biological target: T1, NpsA (wt-NpsA); assay: biochemical; format: binding; details: n = 3
[9] = system: O=C(O)c1cccc(O)c1; assay: purified protein, by the assay type; details: pH 8.0
[10] = system: Nc1ncnc2c1ncn2[C@@H]1O[C@H](COP(=O)(O)OP(=O)(O)OP(=O)(O)O)[C@@H](O)[C@H]1O; assay: purified protein, by the assay type; details: pH 8.0
[11] = system: Nc1c(O)cccc1C(=O)O; assay: purified protein, by the assay type; details: pH 8.0

5′-[N-(2-Amino-3-hydroxybenzoyl)sulfamoyl]amino-5′-deoxyadenosine triethylammonium salt [Compound 5]
Ki [1]: 54 nM | Kd [2]: 29 nM and 29.3 nM | growth inhibition of K. oxytoca [3]: does not inhibit growth

5′-[N-(2-Aminobenzoyl)sulfamoyl]amino-5′-deoxyadenosine triethylammonium salt [Compound 9]
Ki [1]: 1200 nM | Kd [2]: 485 nM

5′-[N-(3-Hydroxybenzoyl)sulfamoyl]amino-5′-deoxyadenosine triethylammonium salt [Compound 8]
Ki [1]: 230 nM | Kd [2]: 112 nM | IC50 [4]: 29 µM | growth inhibition of K. oxytoca [3]: no observable growth inhibition

Nc1c(O)cccc1C(=O)O [3-Hydroxyanthranilic acid]
kcat (apparent) ([5]; pH 8): 0.78 ± 0.01 s⁻¹ | Km ([5]; read-out: KM (apparent), pH 8): 63 µM

O=C(O)c1cccc(O)c1 [3-Hydroxybenzoic acid]
fold decrease in specificity constant (kcat/KM) [5]: 200 fold | kcat (apparent) ([5]; pH 8): 0.35 ± 0.07 s⁻¹ | Km ([5]; read-out: KM (apparent), pH 8): 4000 µM

Nc1ncnc2c1ncn2[C@@H]1O[C@H](COP(=O)(O)OP(=O)(O)OP(=O)(O)O)[C@@H](O)[C@H]1O [ATP, adenosine triphosphate]
kcat (apparent) [6]: 0.056 ± 0.002 s⁻¹ | Km ([6]; read-out: KM (apparent)): 21 µM | kcat (apparent) ([5]; pH 8): 0.82 ± 0.01 s⁻¹ | Km ([5]; read-out: KM (apparent), pH 8): 15 µM

Nc1ccccc1C(=O)O [Anthranilic acid]
Km [5]: 854 µM | fold decrease in specificity constant (kcat/KM) [5]: 52 fold | kcat (apparent) ([5]; pH 8): 0.29 ± 0.01 s⁻¹ | Km ([5]; read-out: KM (apparent), pH 8): 850 µM

O=C(O)[C@@H]1CCCN1 [L-Proline]
kcat (apparent) [6]: 0.037 ± 0.002 s⁻¹

Nc1c(O)cccc1C(=O)NS(=O)(=O)NC[C@H]1O[C@@H](n2cnc3c(N)ncnc32)[C@H](O)[C@@H]1O [compound 5, 3-hydroxyanthraniloyl-AMS; 5′-[N-(2-Amino-3-hydroxybenzoyl)sulfamoyl]amino-5′-deoxyadenosine triethylammonium salt]
Ki [7]: 54 nM | Kd [8]: 29.3 nM

Nc1ncnc2c1ncn2[C@@H]1O[C@H](CNS(=O)(=O)NC(=O)c2cccc(O)c2)[C@@H](O)[C@H]1O [compound 8, 3-hydroxybenzoyl-AMS; 5′-[N-(3-Hydroxybenzoyl)sulfamoyl]amino-5′-deoxyadenosine triethylammonium salt]
Ki [7]: 230 nM | Kd [8]: 112 nM

Nc1ccccc1C(=O)NS(=O)(=O)NC[C@H]1O[C@@H](n2cnc3c(N)ncnc32)[C@H](O)[C@@H]1O [compound 9, anthraniloyl-AMS; 5′-[N-(2-Aminobenzoyl)sulfamoyl]amino-5′-deoxyadenosine triethylammonium salt]
Ki [7]: 1200 nM | Kd [8]: 485 nM

NpsA (wt-NpsA) (Klebsiella oxytoca)
Km [9]: (4.0 ± 0.9) × 10^3 uM | kcat [9]: 0.35 ± 0.07 s⁻¹ | kcat/Km [9]: 88 ± 26 M⁻¹ s⁻¹ | Km [10]: (1.5 ± 0.1) × 10^1 uM | kcat [10]: 0.82 ± 0.01 s⁻¹ | kcat/Km [10]: 56000 ± 4000 M⁻¹ s⁻¹ | Km [11]: (6.3 ± 0.2) × 10^1 uM | kcat [11]: 0.78 ± 0.01 s⁻¹ | kcat/Km [11]: 18000 ± 1000 M⁻¹ s⁻¹
